In ChEMBL document CHEMBL1149649, “Synthesis and anti-influenza activities of carboxyl alkoxyalkyl esters of 4-guanidino-Neu5Ac2en (zanamivir)” (Bioorg Med Chem Lett, 2007):

Assays:
[1] = test system: Influenza A virus; assay: Antiviral activity against influenza A/Jifang/15/90 (H3N2) virus in MDCK cells by CPE assay; type: functional, organism-based
[2] = test system: Influenza B virus; assay: Antiviral activity against influenza B/Jifang/13/97 virus in MDCK cells by CPE assay; type: functional, organism-based
[3] = test system: Influenza A virus; assay: Antiviral activity against influenza A/Yuefang/243/72 (H3N2) virus in MDCK cells by CPE assay; type: functional, organism-based
[4] = test system: Influenza B virus; assay: Antiviral activity against influenza B/Jingfang/76/98 in MDCK cells by CPE assay; type: functional, organism-based
[5] = test system: Influenza B virus; assay: Antiviral activity against influenza B/Sichuan/83/2000 virus in MDCK cells by CPE assay; type: functional, organism-based
[6] = test system: Influenza A virus; assay: Antiviral activity against influenza A/Hanfang/359/95 (H3N2) virus in MDCK cells by CPE assay; type: functional, organism-based
[7] = test system: Influenza A virus; assay: Antiviral activity against influenza A/Jingfang/262/95(H1N1) virus in MDCK cells by CPE assay; type: functional, organism-based
[8] = test system: Influenza A virus; assay: Antiviral activity against influenza A/Jingfang/Fm1 (H1N1) virus infected in mouse assessed as survival of mouse at 125 mg/kg, po bid after 2 hrs of viral infection for 5 days; type: functional
[9] = test system: Influenza A virus; assay: Antiviral activity against influenza A/Jingfang/Fm1 (H1N1) infected in mouse assessed as survival of mouse at 62.5 mg/kg, po bid after 2 hrs of viral infection for 5 days; type: functional
[10] = test system: Influenza A virus; assay: Antiviral activity against influenza A/Jingfang/Fm1 (H1N1) infected in mouse assessed as mean survival time of mouse at 125 mg/kg, po bid after 2 hrs of viral infection for 5 days; type: functional
[11] = test system: Influenza A virus; assay: Antiviral activity against influenza A/Jingfang/Fm1 (H1N1) infected in mouse assessed as mean survival time of mouse at 31.25 mg/kg, po bid after 2 hrs of viral infection for 5 days; type: functional
[12] = test system: Influenza A virus; assay: Antiviral activity against influenza A/Jingfang/Fm1 (H1N1) infected in mouse assessed as mean survival time of mouse at 62.5 mg/kg, ip bid after 2 hrs of viral infection for 5 days; type: functional; conditions: route intraperitoneal
[13] = test system: Influenza A virus; assay: Antiviral activity against influenza A/Jingfang/Fm1 (H1N1) infected in mouse assessed as survival of mouse at 31.25 mg/kg, po bid after 2 hrs of viral infection for 5 days; type: functional
[14] = test system: Mus musculus; assay: Survival of mouse at 31.25 mg/kg, po bid after 5 days; type: ADME, organism-based; parameters: dose 31.25 mg/kg, route oral; conditions: in vivo, 120 h
[15] = test system: Mus musculus; assay: Survival of mouse at 62.5 mg/kg, po bid after 5 days; type: ADME, organism-based; parameters: dose 62.5 mg/kg, route oral; conditions: in vivo, 120 h
[16] = test system: Mus musculus; assay: Weight change in mouse at 62.5 mg/kg, po bid after 14 days; type: ADME, organism-based; parameters: dose 62.5 mg/kg, route oral; conditions: in vivo, 336 h
[17] = test system: Mus musculus; assay: Weight change in mouse at 31.25 mg/kg, po bid after 14 days; type: ADME, organism-based; parameters: dose 31.25 mg/kg, route oral; conditions: in vivo, 336 h
[18] = test system: Mus musculus; assay: Weight change in mouse at 62.5 mg/kg, ip bid after 14 days; type: ADME, organism-based; parameters: dose 62.5 mg/kg, route intraperitoneal; conditions: in vivo, 336 h
[19] = test system: Influenza A virus; assay: Antiviral activity against influenza A/Jingfang/Fm1 (H1N1) infected in mouse assessed as survival of mouse at 62.5 mg/kg, ip bid after 2 hrs of viral infection for 5 days; type: functional; conditions: route intraperitoneal
[20] = test system: Mus musculus; assay: Survival of mouse at 125 mg/kg, po bid after 5 days; type: ADME, organism-based; parameters: dose 125 mg/kg, route oral; conditions: in vivo, 120 h
[21] = test system: Mus musculus; assay: Weight change in mouse at 125 mg/kg, po bid after 14 days; type: ADME, organism-based; parameters: dose 125 mg/kg, route oral; conditions: in vivo, 336 h
[22] = test system: Mus musculus; assay: Survival of mouse at 62.5 mg/kg, ip bid after 5 days; type: ADME, organism-based; parameters: dose 62.5 mg/kg, route intraperitoneal; conditions: in vivo, 120 h
[23] = test system: Influenza A virus; assay: Antiviral activity against influenza A/Jingfang/Fm1 (H1N1) infected in mouse assessed as mean survival time of mouse at 62.5 mg/kg, po bid after 2 hrs of viral infection for 5 days; type: functional
[24] = test system: Mus musculus; assay: Weight change in mouse at 100 mg/kg, ip bid after 14 days; type: ADME, organism-based; parameters: dose 100 mg/kg, route intraperitoneal; conditions: in vivo, 336 h
[25] = test system: Mus musculus; assay: Survival of mouse at 100 mg/kg, ip bid after 5 days; type: ADME, organism-based; parameters: dose 100 mg/kg, route intraperitoneal; conditions: in vivo, 120 h
[26] = test system: Influenza A virus; assay: Antiviral activity against influenza A/Jingfang/Fm1 (H1N1) infected in mouse assessed as mean survival time of mouse at 100 mg/kg, ip bid after 2 hrs of viral infection for 5 days; type: functional; conditions: route intraperitoneal

SMILES | IC50 [1] [µM] | IC50 [2] [µM] | IC50 [3] [µM] | IC50 [4] [µM] | IC50 [5] [µM] | IC50 [6] [µM] | IC50 ([7]; Influenza A virus, MDCK) [µM] | also measured
CCCCCCCCCCCCCCCCOCCCOC(=O)C1=C[C@H](NC(=N)N)[C@@H](NC(C)=O)[C@H]([C@H](O)[C@H](O)CO)O1 | 3.01 | 23.4 | 0.301 | 22.3 | 22.3 | 3.06 | 18.1 | –
CCCCCCCCCCCCCCOCCCOC(=O)C1=C[C@H](NC(=N)N)[C@@H](NC(C)=O)[C@H]([C@H](O)[C@H](O)CO)O1 | 2.49 | 31.5 | 0.315 | 23.3 | 37.8 | 1.06 | 18.9 | –
CCCCCCCCCCCCCCCCCCOCCOC(=O)C1=C[C@H](NC(=N)N)[C@@H](NC(C)=O)[C@H]([C@H](O)[C@H](O)CO)O1 | 2.94 | 247 | 0.226 | 66.6 | 21.8 | 5.89 | 26.8 | survival at 125 mg/kg [8]: 60%; survival at 62.5 mg/kg [9]: 40%; Activity [10]: 11.2 days; Activity [11]: 9.1 days; Activity [12]: 11.5 days; survival at 31.25 mg/kg [13]: 10%; Activity [14]: Active; Activity [15]: Active; Activity [16]: 13.5 g; Activity [17]: 12.7 g; Activity [18]: 13.9 g; survival at 62.5 mg/kg [19]: 60%; Activity [20]: Active; Activity [21]: 12.5 g; Activity [22]: Active; Activity [23]: 10.2 days
NC(=O)c1ncn([C@@H]2O[C@H](CO)[C@@H](O)[C@H]2O)n1 [RIBAVIRIN] | 5.04 | 96.2 | 5.85 | 15.2 | 164 | 7.01 | 176 | Activity [24]: 11.5 g; Activity [25]: Active; Activity [26]: 14 days
CC(=O)N[C@H]1[C@H]([C@H](O)[C@H](O)CO)OC(C(=O)O)=C[C@@H]1NC(=N)N [ZANAMIVIR] | 0.469 | – | 0.075 | 223 | 1580 | 0.385 | – | IC50 ([7]; mdck): 16.7 µM
